In US6080542A, “Plant peptide transport gene” (priority 1997, dated 2000):
Where a SMILES comes first, the peptide text is derived from it. Where no end group is shown, it is not given here. Eth = ethionine

Legend:
PB1X-9B [1] = assay: Toxic peptide disk assay, peptide transport mutant; assay type: cell-based, Saccharomyces cerevisiae; conditions: for diameter of zone of inhibition: disk with 0.38 μmoles, lawn of 5×10^6 cells, 30° C., 1 to 2 days, mean ± standard error
Description: (§1) Since ptr mutants are deficient in peptide transport, they are unable to take up toxic peptides. This inability renders such mutants resistant to the toxic effect of the peptides. In order to determine whether the polynucleotides of the present invention could restore toxic peptide sensitivity to ptr2 mutants, the sensitivity of plasmid-transformed cells was determined. Sensitivity to toxic amino acids and peptides was measured as described by Island, M. D. et al. (J. Bacteriol. 169:2132-2136 (1987)). Briefly, a filter disk containing 0.38 μmoles of the toxic compound was placed on a lawn containing 5×10^6 cells and the plate incubated at 30° C. for 1 to 2 days. Resulting halos were measured across their diameter. The toxic dipeptides Leu-Eth, Ala-Eth, Leu-F-Phe and Oxalysine were synthesized by standard solution phase techniques (Naider, F. et al., J. Biol. Chem. 249:9-20 (1974). The results of this experiment are shown in Table 2 (values are the mean of the diameters of the observed zone of inhibition in millimeters±standard error of the mean of at least two independent experiments).

PB1X-9B (pPTF4) [2] = assay: Toxic peptide disk assay, mutant with plant gene ATPTR2A; assay type: cell-based, Saccharomyces cerevisiae; conditions: for diameter of zone of inhibition: disk with 0.38 μmoles, lawn of 5×10^6 cells, 30° C., 1 to 2 days, mean ± standard error
Description: as §1

[3] = tested on: S. cerevisiae strains tested; assay: Toxic peptide disk assay, statements covering several strains; assay type: cell-based, Saccharomyces cerevisiae; conditions: for sensitivity to toxic peptide: all strains tested
Description: as §1

PB1X-9B (pJP9) [4] = assay: Toxic peptide disk assay, mutant with yeast peptide transport gene; assay type: cell-based, Saccharomyces cerevisiae; conditions: disk with 0.38 μmoles, lawn of 5×10^6 cells, 30° C., 1 to 2 days, mean ± standard error
Description: as §1

S288C = assay: Toxic peptide disk assay, wild type; assay type: cell-based, Saccharomyces cerevisiae; conditions: disk with 0.38 μmoles, lawn of 5×10^6 cells, 30° C., 1 to 2 days, mean ± standard error
Description: as §1

PB1X-9B [5] = assay: Growth on peptides as amino acid source, peptide transport mutant; assay type: cell-based, Saccharomyces cerevisiae; conditions: PBIX-9B; 80 μM peptide in SC medium, 30° C., 72 hrs
Description: (§2) In addition, untransformed PB1X-9B, PB1X-9B transformed with plasmid pJP9 encoding the above-described yeast peptide transport gene, PB1X-2AΔ and PB1X-2A, the ptr2^+ parental strain to PB1X-2AΔ strain, were also assayed. Each strain was grown overnight in SC media plus uracil (non-transformed) or minus uracil (transformed) plus amino acids to stationary phase and harvested by centrifugation. Cells were then washed twice with sterile dH2 O and resuspended at 5×10^6 cells/ml. 5 μl of each suspension was applied as a small spot to a 2 ml volume of solid media in a 24 well plate. All peptides were suspended in sterile, deionized water and added to an equal volume of SC medium plus the appropriate amino acids and uracil when required. The medium for each assay thus consisted of SC medium plus or minus uracil supplemented with 80 μM of a specific peptide and auxotrophic requirements minus the amino acid components of the added peptide. The plates were incubated at 30° C. for 72 hrs. and then scored for growth.

PB1X-9B (pJP9) [6] = assay: Growth on peptides, mutant transformed with yeast peptide transport gene; assay type: cell-based, Saccharomyces cerevisiae; conditions: for growth on peptide: PBIX-9B (pJP9), 80 μM peptide in SC medium, 30° C., 72 hrs
Description: as §2

PB1X-9B (pPTF4) [7] = assay: Growth on peptides, mutant transformed with plant gene ATPTR2A; assay type: cell-based, Saccharomyces cerevisiae; conditions: PBIX-9B (pPTF4); 80 μM peptide in SC medium, 30° C., 72 hrs
Description: as §2

A. thaliana seedlings = assay: Root assay, toxic peptide plus competitor peptide; assay type: in vivo, Arabidopsis thaliana
Description: Approximately 15 A. thaliana seeds were placed in a row at one end of 10 cm plate containing 20 ml of Arabidopsis growth media (Kranz and Kirchheim 1987). The seeds were incubated 3-5 days in the light with the plate set in an upright position. When the roots were approximately 1-2 cm long, sterile paper filter disks were placed immediately in front of the root tips on the right and left side of the plate 2 cm from the edge of the plate. A line was drawn across the plate using the top of the disks as a guide marking zero growth. 5 μl of toxic amino acid analog, toxic peptide, or toxic peptide plus competitor was added to one disk while H2 O was place on the other disk. The plates were incubated for an additional 3-5 days. The average length of the roots was measured from the line and the results expressed as a percentage of control root growth.

ATPTR2Ap = assay: Uptake of L-leucyl-L-[3H]leucine and competition, PB1X-9B[pPTF4]
Description: The kinetics of ATPTR2A-mediated transport of peptides in yeast was evaluated by transforming pPTF4 into the S. cerevisiae peptide transport mutant, PB1X-9B and measuring the uptake of tritiated Leu-Leu dipeptide.
L-leucyl-L [^3 H]leucine trifluoroacetic acid (TFA) was synthesized by standard solution phase techniques (Naider, F. et al., J. Biol. Chem. 249:9-20 (1974)). Uptake of L-leucyl-L-[H]leucine was performed as by Island, M. D. et al (J. Bacteriol. 169:2132-2136 (1987)), with the following modifications. Cells were grown to late log phase (26×10^7 cells/ml) overnight in SC with 2% glucose, 1 mg/ml allantoin plus amino acids to supplement auxotrophic markers. To induce peptide transport. 5-15 ml from this culture was added to 100 ml fresh medium such that the density was 3.0×10^6 cells/ml. This culture was allowed to grow (approx. 2 hrs.) to a density of 6.0×10^6 cells/ml and then harvested by centrifugation. The pelleted cells were washed twice with 10 ml cold dH2 O and suspended in cold 2% glucose to a final concentration of 2×10^8 cells/ml and incubated at 30° C. for 15 min. 500 μl of cells were then added to an equal volume of reaction mixture (30° C.) and incubated at 30°-C. At 20, 40, 60, 90, and 120 sec. intervals, 190 μl portions were removed, filtered over filters (pore size, 0.45 μm; GN-6; Gelman Sciences, Inc., Ann Arbor, Mich.) and washed 2 times with 5 ml cold, sterile dH2 O and once with 5 ml dH2 O at room temperatures. Filters were placed in scintillation vials with 5 ml of Budget-Solve scintillation cocktail (Research Products International Corp., Mount Prospect, Ill.) and counted (liquid scintillation counter; LS-7000; Beckman Instruments, Inc., Fullerton, Calif.). The final concentration of the components in the uptake assay was 1% glucose, 40 mM sodium citrate-potassium phosphate buffer (pH 5.5), and 1.5×105 M L-leucyl-L-[^3 H]leucine (specific activity, 10 mCi/mmole). Uptake is expressed as nanomoles per mg dry weight.

[8] = PB1X-9B[pPTF4], pH 5.5, dileucine and leucine at 100-fold

Molecule: Lys-Leu-Leu-Eth: ethionine-containing peptide of four residues
- diameter of zone of inhibition (PB1X-9B [1]): 0 millimeters
- diameter of zone of inhibition (PB1X-9B (pPTF4) [2]): 0 millimeters
- sensitivity to toxic peptide [3]: None of the strains tested were sensitive
- diameter of zone of inhibition (PB1X-9B (pJP9) [4]): 0 millimeters
- diameter of zone of inhibition (S288C): 0 millimeters

Molecule: CC(C)C[C@H](NC(=O)[C@@H](N)Cc1c[nH]cn1)C(=O)O [His-Leu] (H-His-Leu-OH)
- growth on peptide (PB1X-9B [5]): -
- growth on peptide (PB1X-9B (pJP9) [6]): +
- growth on peptide (PB1X-9B (pPTF4) [7]): +

Molecule: Lys-Leu-Ala-Eth: ethionine-containing peptide of four residues
- diameter of zone of inhibition (PB1X-9B [1]): 0 millimeters
- diameter of zone of inhibition (PB1X-9B (pPTF4) [2]): 0 millimeters
- sensitivity to toxic peptide [3]: None of the strains tested were sensitive
- diameter of zone of inhibition (PB1X-9B (pJP9) [4]): 0 millimeters
- diameter of zone of inhibition (S288C): 0 millimeters

Molecule: fluorophenylalanine [F-Phe]
- sensitivity or resistance to toxic compound (PB1X-9B [1]): sensitive
- diameter of zone of inhibition (PB1X-9B [1]): 14.0 ± 1.0 millimeters
- sensitivity or resistance to toxic compound (PB1X-9B (pPTF4) [2]): sensitive
- diameter of zone of inhibition (PB1X-9B (pPTF4) [2]): 19.5 ± 0.5 millimeters
- sensitivity to toxic compound ([3]; wild type (S288C) and transformants): less sensitive
- diameter of zone of inhibition (PB1X-9B (pJP9) [4]): 20.0 ± 0.0 millimeters
- diameter of zone of inhibition (S288C): 25.0 ± 4.0 millimeters

Molecule: Ala-Ala-Leu: tripeptide growth substrate (AAL)
- growth on peptide (PB1X-9B [5]): -
- growth on peptide (PB1X-9B (pJP9) [6]): +
- growth on peptide (PB1X-9B (pPTF4) [7]): +

Molecule: CC(C)C[C@H](NC(=O)[C@@H](N)CCCCN)C(=O)O [Lys-Leu, L-lysyl-L-leucine] (H-Lys-Leu-OH)
- growth on peptide (PB1X-9B [5]): -
- growth on peptide (PB1X-9B (pJP9) [6]): +
- growth on peptide (PB1X-9B (pPTF4) [7]): +

Molecule: Lys-Leu-Leu-Ala-Eth: ethionine-containing peptide, SEQ ID NO:13 (KLLA-Eth)
- diameter of zone of inhibition (PB1X-9B [1]): 0 millimeters
- diameter of zone of inhibition (PB1X-9B (pPTF4) [2]): 0 millimeters
- sensitivity to toxic peptide [3]: None of the strains tested were sensitive
- diameter of zone of inhibition (PB1X-9B (pJP9) [4]): 0 millimeters
- diameter of zone of inhibition (S288C): 0 millimeters

Molecule: Gly-Leu-Gly-Leu: SEQ ID NO:6 (GLGL)
- growth on peptide (PB1X-9B [5]): -
- growth on peptide (in words) (PB1X-9B (pJP9) [6]; PB1X-9B transformed with pJP9): showed growth on all peptides except
- growth on peptide (PB1X-9B (pJP9) [6]): -
- growth on peptide (PB1X-9B (pPTF4) [7]): -

Molecule: CSCC[C@H](N)C(=O)O [Met]
- reversal of toxicity by competitor (in words) (A. thaliana seedlings; toxic peptide Ala-Eth): unable to reverse the inhibition
- root growth with toxic peptide plus competitor (A. thaliana seedlings; toxic peptide Ala-Eth): 0 percentage of control root gro
- reversal of toxicity by competitor (in words) (A. thaliana seedlings; toxic peptide Leu-Eth): unable to reverse the inhibition
- root growth with toxic peptide plus competitor (A. thaliana seedlings; toxic peptide Leu-Eth): 0 percentage of control root gro

Molecule: CC(C)C[C@H](NC(=O)[C@@H](N)CC(C)C)C(=O)O [Leu-Leu, L-leucyl-L-leucine]
- competition for uptake of [3H]-dileucine (ATPTR2Ap; [8]): inhibited
- growth on peptide (PB1X-9B [5]): -
- growth on peptide (PB1X-9B (pJP9) [6]): +
- growth on peptide (PB1X-9B (pPTF4) [7]): +

Molecule: CC(C)C[C@H](N)C(=O)O [leucine]
- competition for uptake of [3H]-dileucine (ATPTR2Ap; 3 h): no effect
- competition for uptake of [3H]-dileucine (ATPTR2Ap; [8]): did not reduce uptake

Molecule: Lys-Leu-Leu-Leu-Eth: ethionine-containing peptide, SEQ ID NO:14 (KLLL-Eth)
- diameter of zone of inhibition (PB1X-9B [1]): 0 millimeters
- diameter of zone of inhibition (PB1X-9B (pPTF4) [2]): 0 millimeters
- sensitivity to toxic peptide [3]: None of the strains tested were sensitive
- diameter of zone of inhibition (PB1X-9B (pJP9) [4]): 0 millimeters
- diameter of zone of inhibition (S288C): 0 millimeters
